# In patent publication US20240139205A1, “MODULATORS OF ARALAR FOR TREATING NEUROLOGICAL DISORDERS” (Universite de Lausanne, priority 2020, published 2024):
# Tests used:
# Cyfip^85.1/+ flies [1] = assay: competition for food assay (total number of social events) in Cyfip haploinsufficient flies; format: in vivo, Drosophila; conditions: for social behavior deficit (social events): Cyfip^85.1/+ flies fed 5 days, GABA 50 μM, DABA 100 μM, VPA 1 mM; for number of social events: 1 mM in the food, 1 or 2 days
# Procedure: (§1) Experiments were performed with socially experienced, 3-7 days-old male flies. Groups of eight males from the same genotype were anesthetized 24 h prior to the assay and placed in vials with food. On the day of the assay, the males were transferred without anesthesia to an empty vial and were deprived of food for 90 minutes, after which they were exposed to a food droplet and given 2 minutes to acclimate to this disturbance. The flies were then observed simultaneously for an additional 2 minutes, and the total number of social events was scored. Monitored social events were i.e. approaches, lunges, tussles, wing threat and the initiation of courtship. Of note, one interaction involving two or more flies was counted as one social event in total (Zwarts (2011), PNAS 108, 17070-17075. The behavioral assays were conducted in a behavioral chamber (25° C., 60-70% humidity) between 8 a.m. and 11 a.m. Statistics were calculated using a one-way fixed effect ANOVA model, and Kruskal Wallis test in combination with Dunn's multiple comparison test.
# (§2) Example 8. GABA augmentation fully normalizes the behavioral abnormalities of Cyfip^85.1/+ flies. GABA levels were augmented in Cyfip^85.1/+ flies in three distinct ways: flies were fed either GABA, DL-2,4-diaminobutyric acid (DABA) which is a GABA-transaminase inhibitor and/or a GABA reuptake inhibitor or the anticonvulsant valproic acid (VPA) which induces GABA release (Chateauvieux (2010), Journal of biomedicine & biotechnology 2010; Coghlan (2012), Neurosci Biobehav Rev 36, 2044-2055; Reynolds (2007), Current medicinal chemistry 14, 2799-2812). All compounds were purchased from Sigma-Aldrich and were used as described before (Kanellopoulos (2012), J Neurosci. 32(38):13111-24; Zwarts (2011), PNAS 108, 17070-17075). In brief, the drugs were dissolved as per the manufacturer's instructions and used at the following concentrations: GABA at 50 μM, DABA 100 μM, Valproic acid (VPA) at 1 mM and Diazepam at 50 μM. Compounds in solution were mixed with Formula 4-24® Instant Drosophila Medium (blue food) in water. Approximately 50-60 adult flies were placed in plastic vials containing 500 μl of each solution on top of an agar matrix and allowed to feed ad libitum before behaviour analysis. Vehicle treatment consisted of solvent added to blue food alone.
# Example 16. Drug screening to identify compounds that ameliorate social behavior deficits in flies with Cyfip haploinsufficiency. Control (w1118) or CYFIP (Cyfip^85.1/+) flies were treated, i.e. fed, with various compounds from the Prestwick Chemical Library® as described in Examples 8 and 15. All compounds were used at a concentration of 50 μM. The total number of social interactions was analyzed in a competition for food assay at various time-points (1, 2 or 5 days) of treatment with the compound or vehicle controls as described in Example 2.
# wild type flies = assay: competition for food assay (total number of social events) in wild type (control) flies; format: in vivo, Drosophila
# Procedure: as §1, §2
# Cyfip^85.1/+ flies [2] = assay: Drosophila locomotor activity (DAM system); format: in vivo; conditions: 10 μM rotenone for 4 days
# Procedure: The Drosophila Activity Monitoring (DAM) system from Trikinetics Inc. (Walthman, MA) was used to record the locomotor activity of flies. Male flies (1-week old), anesthetised on ice, were individually loaded into the locomotor activity-monitoring tubes, thin 5 mm diameter polycarbonate tubes containing 5% sucrose and 2% agar food and incubated for at least 4 days under 12:12 LD (light-dark) conditions at 25° C. and 50-60% humidity. Light was turned on at 7:30 am and turned off at 7:30 pm. The DAM system software counts the number of times the single fly walks through an infrared beam aimed at the middle of the tube. Data were recorded as the number of crossings (transitions) per bin of 5-30 minutes. To allow the flies to recover from anaesthesia and to get acclimatized to the new environment data from the first day was excluded from the analysis. Two independent experiments were performed and at least 40 flies for each genotype were analysed. Statistical analysis was conducted using GraphPad Prism 6.0 software. Data were evaluated by one-way analysis of variance (ANOVA) with Sidak's post hoc test and by non-parametric Kruskal-Wallis's test with Dunn's correction.
# [3] = test system: mitochondrial membrane potential; assay: mitochondrial membrane potential by TMRE staining of fly brains; format: in vivo, Drosophila; conditions: wild type flies; oligomycin 500 μM in the food
# Procedure: Briefly, for the TMRE (Enzo) and Rhodamine 123 (Sigma-Aldrich) stainings, brains were dissected in HL3 solution (mM): 110 NaCl, 5 KCl, 10 NaHCO3, 5 Hepes, 30 sucrose, 5 trehalose, and 10 MgCl2, pH 7.2. Dissected brains were stained with 10 nM TMRE or Rhodamine123 dye for 5 minutes at room temperature. Brains were quickly washed with HL3 solution, mounted on glass slides and imaged immediately with confocal microscope Leica SP8 using the same settings for all the samples.
# (§3) Since Aralar needs a proton for import of its substrate (i.e. GABA) into mitochondria, the equilibrium distribution of the transport substrates is set by the pH gradient across the mitochondrial membrane, which in turn is a function of fuel availability, oxidative phosphorylation and activity of the TCA cycle.
# GABA = GABA levels by ELISA after fractionation of fly brains; format: in vivo, Drosophila; conditions: wild type flies; oligomycin 500 μM in the food
# Procedure: Finally, GABA levels were measured by ELISA (GABA ELISA Enzyme immunoassay (IBL, ID59301) following a fractionation to enrich for mitochondria or synaptic vesicles (Depner (2014), Nat Protoc 9, 2796-2808). In brief, total brain lysates, isolated mitochondria and vesicles were used for GABA derivatization. The samples were incubated with a polyclonal antibody against GABA-derivative, together with assay reagent containing the GABA-derivative (tracer). The concentration of antibody-bound tracer is inverse proportional to the GABA concentration in the sample. Peroxidase conjugate was added detect the tracer and tetramethylbenzidine (TMB) served as a peroxidase substrate. The absorbance was measured in a microplate photometer at 450 nm.
# as §3
# [4] = test system: mitochondrial membrane potential; conditions: literature statement; cited from earlier work
# [5] = test system: flies with GABAergic-specific or pan-neuronal Cyfip abrogation; assay: competition for food assay (social interactions) in flies with Cyfip abrogation (UAS-Cyfip-IR); format: in vivo, Drosophila; conditions: for social interactions: flies with GABAergic-specific Cyfip abrogation, GABA, DABA or VPA in food
# Source text: To control Cyfip expression, the tissue specific GAL4/UAS system was employed (Brand and Perrimon, 1993). […] Specifically, the UAS-Cyfip-RNAi transgene (UAS-Cyfip-IR) was used to abrogate Cyfip expression as described in Galy et al., 2011. To generate GAL4/UAS-Cyfip-IR flies, GAL4/GAL4 females were crossed en masse to UAS-Cyfip-IR/UAS-Cyfip-IR males. The GAL4 drivers are described in Kanellopoulos (2012), J Neurosci. 32(38):13111-24. GAL4 and UAS lines have been isogenized for 6 generations with the w1118 background before crossing. GAL4/GAL4 and UAS-Cyfip-IR/UAS-Cyfip-IR females were also crossed with w^1118 males to generate GAL4/+ and UAS-Cyfip-IR/+ progeny respectively that served as controls which should not produce the RNAi construct.
# Tissue-specific GAL4 expression was achieved using the tissue-specific GAL4 promoters as follows: pan-neuronal (Elav), in cholinergic (Cha-Gla4), and GABAergic (Gad-Gal4). To avoid neurodevelopmental problems and possible lethality, the ElavGal4, was combined with the temporal TubGal80^ts system (McGuire et al., 2003; McGuire et al., 2004). At 18° C., TubGal80^ts is expressed and binds GAL4, prohibiting its binding to the UAS (i.e., no transcription of UAS-Cyfip-IR). In contrast, at 29-30° C. TubGal80^ts is degraded and will release GAL4 which in turn will bind the UAS thus activating transcription of UAS-Cyfip-IR. […] All flies/progeny for promoter-Gal4;TubGal80^ts and their controls were cultured at 18° C. and 2-days after eclosion were placed at 29-30° C. allowing UAS-Cyfip-IR transcription.
# as §1
# Example 8. GABA augmentation fully normalizes the behavioral abnormalities of Cyfip^85.1/+ flies. […]
# GABA release = conditions: literature statement (Amoroso 1990); cited from earlier work
molecule,measurement,setting,value
C=C(C)[C@H]1Cc2c(ccc3c2O[C@@H]2COc4cc(OC)c(OC)cc4[C@@H]2C3=O)O1 [rotenone],reversibility of the effect of treatment on social behavior,"Cyfip^85.1/+ flies [1]; Cyfip^85.1/+ flies treated 4 days with rotenone, tested for 5 days post-treatment",reversible
same,social deficits (competition for food),"Cyfip^85.1/+ flies [1]; Cyfip^85.1/+ flies, rotenone 1-10 μM in the food, 4 days",ameliorate social deficits
same,behavior of wild type flies (competition for food),"wild type flies; wild type flies, rotenone 1-10 μM in the food, 4 days",no effect
same,hyperactivity (locomotion over 24 hours),Cyfip^85.1/+ flies [2],did not restore the hyperactivity
same,hyperactivity (locomotion over 24 hours),Cyfip^85.1/+ flies [2]; listed as Rotenone,does not rescue hyperactivity
CC[C@H]1/C=C/C=C/C[C@@H](C)[C@H](O)[C@@](C)(O)C(=O)[C@@H](C)[C@H](O)[C@@H](C)C(=O)[C@@H](C)[C@H](O)[C@@H](C)/C=C/C(=O)O[C@@H]2[C@H](C)[C@H](CC1)O[C@]1(CC[C@H](C)[C@H](C[C@@H](C)O)O1)[C@H]2C [oligomycin],competition for food,"wild type flies; wild type flies, oligomycin 500 μM in the food, 1 day",decreased
same,mitochondrial membrane potential (TMRE staining),[3],increasing mitochondrial membrane potential
same,level of available GABA in the cytosol (ELISA),GABA,decreased
"COc1ccc(CN2CCNCC2)c(OC)c1OC.Cl.Cl [Trimetazidine dihydrochloride, 1-[(2,3,4-trimethoxyphenyl)methyl]piperazine dihydrochloride]",mitochondrial membrane potential,[4],balances the mitochondrial membrane potential
"NCCCC(=O)O [GABA, gamma-Aminobutyric acid]",social behavior deficit (social events),Cyfip^85.1/+ flies [1],ameliorated the social behavior deficit
same,duration of the effect post treatment (competition for food),"Cyfip^85.1/+ flies [1]; Cyfip^85.1/+ flies treated 5 days with GABA, tested post treatment",2 days
same,social interaction,"wild type flies; adult wild-type flies, high GABA diet, 5 days",decreased social interaction
same,behavioral deficits (social interactions),"[5]; adult pan-neuronal Cyfip abrogation, GABA feeding 5 days",rescued behavioral deficits
same,social interactions,[5],restored the social interactions
"CCCNC(=O)NS(=O)(=O)c1ccc(Cl)cc1 [Chlorpropamide, (1-[p-Chlorobenzenesulfony1]-3-propylurea)]",mitochondrial membrane potential,[4],decrease the mitochondrial membrane potential
same,GABA release,GABA release,indirectly increase GABA release
"CC(=O)c1ccc(S(=O)(=O)NC(=O)NC2CCCCC2)cc1 [Acetohexamide, 4-Acetyl-N-[(cyclohexylamino)carbonyl]benzenesulfonamide]",mitochondrial membrane potential,[4],decrease the mitochondrial membrane potential
same,GABA release,GABA release,indirectly increase GABA release
"CCCC(CCC)C(=O)O [VPA, valproic acid]",social behavior deficit (social events),Cyfip^85.1/+ flies [1],ameliorated the social behavior deficit
same,social interactions,[5],restored the social interactions
"Cc1ccccc1C(C(=O)NC1CCCC1)N(C(=O)Cn1cnc2ccccc21)c1cccc(F)c1 (stereo not drawn) [ML309, 2-(N-[2-(benzimidazol-1-yl)acetyl]-3-fluoroanilino)-N-cyclopentyl-2-(2-methylphenyl)acetamide]","abnormal social feeding behavior (social events, competition for food)","Cyfip^85.1/+ flies [1]; Cyfip^85.1/+ flies, ML309 with the food at 50 µM, 1 or 3 days",ameliorated the abnormal social feeding behavior
"NCCC(N)C(=O)O (racemic) [DABA, DL-2,4-diaminobutyric acid]",social behavior deficit (social events),Cyfip^85.1/+ flies [1],ameliorated the social behavior deficit
same,social interactions,[5],restored the social interactions
4-formyl-5-hydroxy-6-methylpyridin-3 yl) methyl dihydrogen phosphate [pyridoxal 5′-phosphate hydrate],number of social events,Cyfip^85.1/+ flies [1]; Cyfip^85.1/+ flies,rescues the deficits in social behavior
same,number of social events,"Cyfip^85.1/+ flies [1]; Cyfip^85.1/+ flies, listed as PLP",increased the number of social events to the level observed for normal wild type flies
same,number of social events,"wild type flies; wild type flies, 1 mM in the food, 2 days",reduced the number of social events
"O=C1CCc2ccc(OCCCCN3CCN(c4cccc(Cl)c4Cl)CC3)cc2N1 [Aripiprazole, 7-[4-[4-(2,3-dichlorophenyl)piperazin-1-yl]butoxy]-3,4-dihydro-1H-quinolin-2-one]",mitochondrial membrane potential,[4],decreases the mitochondrial membrane potential
